# Laboratory results taken from article doi:10.1101/2024.08.13.607848, “Bibacillin 1: A two-component lantibiotic from Bacillus thuringiensis” (bioRxiv, 2024).
# Key:
# rabbit erythrocytes = type: cell-based; details: total peptide concentration 2 µM; 1 h at 37 °C; hemoglobin release, absorbance at 415 nm; mixture 1:1
# Description: Solution phase hemolysis assays were conducted as described previously.[35]
# Fig. S2. […] A) Hemoglobin release […]
# erythrocytes were treated with 0.03% v/v triton X-100. Negative control contained only buffer. A total peptide concentration of 2 µM was used in each case. B) Extent of hemolysis after treating freshly washed rabbit erythrocytes with 1:1 of CylLS”:CylLL” at 37 ̊C for 1 h. Data was fit to a […]
# (1 picture or pasted object on this page, not shown here)
# [1] = test system: Micrococcus luteus ATCC 4698; test: Agar diffusion assay using bacteria; type: cell-based
# Description: Fig. 4. […] Cytolysin was used as a positive control.
# Overnight cultures of bacteria were prepared according to Table S1. The OD600 of each culture was determined and adjusted to a value of 1 using the appropriate growth media. Molten growth media containing 0.7% agar was cooled to 50 °C and inoculated with 50 μL of adjusted overnight culture for every 5 mL of molten growth media. The inoculated molten growth media was immediately poured onto a pre-warmed agar (2%) plate prepared using the same media. The plate was allowed to set for 30 min at room temperature before adding 3 μL of peptide stock diluted in PBS to 100 μM. The deposited peptide solutions were allowed to stand on the agar plate for 30 min before incubation for 16–36 h at the optimum growth temperature until the desired cell density was achieved.
# [2] = SDS-PAGE analysis of oligomerization; type: physicochemical; details: in the presence of SDS
# Text: Using agar plates seeded with E. faecalis pXL110 and the colorimetric LacZ substrate X-gal, LacZ expression was visualized. Consistent with previous reports,[43] […] Comparing the structures of CylLS” and Bib1β (Fig. 1A and 2B), we speculated that the presence of Ser16 in Bib1β rather than the hydrophobic residues present in CylLS” in this region might interfere with CylR1 binding possibly due to hydrophobic mismatching. […] To determine whether bibacillin 1 could quorum sense through an aggregation mechanism, the aggregation propensity of bibacillin 1 was analyzed using SDS-PAGE and dynamic light scattering (DLS). […] Since SDS can influence aggregation, the aggregation of bibacillin 1 was further investigated under SDS-free conditions using DLS (Fig. 6B). Bib1α exists in solution as aggregates that are 159 nm in diameter on average (PDI = 0.224) and Bib1β forms aggregates that are 291 nm in diameter on average (PDI = 0.384). […] Confirmation of this hypothesis will require in vitro studies with Bib1R1/R2.
# [3] = In vitro pore formation assay, pyranine-encapsulated liposomes; details: total peptide concentration 5 μM; DOPC liposomes containing or lacking 0.1 mol% lipid II; mixture 1:1
# Description: To investigate the lipid II-dependence of the pore formation activity of bibacillin 1, pyranine-encapsulated liposomes were prepared containing or lacking lipid II and pore formation was monitored via pH-dependent pyranine fluorescence.[70]
# This assay was conducted as described elsewhere.[70]
smiles,measurement,setting,value
C=C(NC(=O)[C@H](C)NC(=O)[C@@H]1CS[C@H](C)[C@H](N)C(=O)NC(=C)C(=O)N2CCC[C@H]2C(=O)N[C@@H](C)C(=O)N1)C(=O)N[C@@H](C)C(=O)N[C@@H](CCSC)C(=O)N[C@@H](CC(C)C)C(=O)N[C@@H](Cc1ccc(O)cc1)C(=O)N[C@@H](CC(C)C)C(=O)N[C@@H](CCC(N)=O)C(=O)NCC(=O)N[C@H](C(=O)NC(=CC)C(=O)N[C@H](C(=O)NC(=C)C(=O)N[C@@H](CC(C)C)C(=O)NCC(=O)N[C@@H](CC(C)C)C(=O)N[C@@H]1CSC[C@@H](C(=O)O)NC(=O)[C@H](Cc2c[nH]cn2)NC(=O)[C@H](CCSC)NC(=O)[C@H](CCCNC(=N)N)NC1=O)C(C)C)C(C)C [Bib1α],Hemolysis in solution phase assay,rabbit erythrocytes,did not induce hemolysis
same,Growth inhibition in agar diffusion assay,[1],weak individual activity
same,Oligomeric state by SDS-PAGE,[2],oligomeric in the presence of SDS
same,"Pore formation activity in liposomes, pyranine fluorescence",[3],pore formation activity that was somewhat enhanced by the addition of lipid II
CC=C1NC(=O)[C@@H](N)[C@@H](C)SC[C@@H](C(=O)N[C@@H](C)C(=O)N[C@H](C(=O)NCC(=O)NCC(=O)NCC(=O)N[C@@H](CC(C)C)C(=O)N[C@@H](C)C(=O)N[C@@H](CC(C)C)C(=O)NCC(=O)N[C@@H](Cc2ccccc2)C(=O)N[C@@H](CO)C(=O)N[C@H](C(=O)N[C@@H]2CSC[C@@H](C(=O)O)NC(=O)[C@H](Cc3ccc(O)cc3)NC(=O)[C@H]([C@@H](C)CC)NC(=O)[C@H](CCCCN)NC2=O)[C@@H](C)CC)[C@@H](C)CC)NC(=O)[C@H](C(C)C)NC(=O)[C@@H]2CCCN2C1=O [Bib1β],Hemolysis in solution phase assay,rabbit erythrocytes,did not induce hemolysis
same,Growth inhibition in agar diffusion assay,[1],weak individual activity
same,Oligomeric state by SDS-PAGE,[2],oligomeric in the presence of SDS
